Results taken from ChEMBL document CHEMBL5236661, “A new selective inhibitor for IMP-1 metallo-β-lactamase, 3Z,5E-octa-3,5-diene-1,3,4-tricarboxylic acid-3,4-anhydride” (Bioorg Med Chem, 2023).
≈ marks a conversion by molar mass, not a printed value. Calls of active or inactive are those of the source. The rule behind the calls is not given here.

Key:
Pseudomonas aeruginosa [1] = assay: Antibacterial activity against Pseudomonas aeruginosa KB367 expressing IMP-1 assessed as inhibition of bacterial growth at 30 ug in presence of meropenem incubated overnight by paper disk method; assay type: functional; details: read-out: IZ
Pseudomonas aeruginosa [2] = assay: Antibacterial activity against Pseudomonas aeruginosa KB367 expressing IMP-1 assessed as inhibition of bacterial growth at 3 ug in presence of meropenem incubated overnight by paper disk method; assay type: functional
Pseudomonas aeruginosa [3] = assay: Antibacterial activity against Pseudomonas aeruginosa KB367 expressing IMP-1 assessed as inhibition of bacterial growth at 0.1 ug in presence of meropenem incubated overnight by paper disk method; assay type: functional, organism-based; details: dose 0.1 µg
Escherichia coli [4] = assay: Antibacterial activity against Escherichia coli KB366 expressing IMP-1 assessed as inhibition of bacterial growth at 30 ug in absence of meropenem incubated overnight by paper disk method; assay type: functional, organism-based; details: dose 30.0 µg
Pseudomonas aeruginosa [5] = assay: Antibacterial activity against Pseudomonas aeruginosa KB367 expressing IMP-1 assessed as inhibition of bacterial growth at 0.1 ug in absence of meropenem incubated overnight by paper disk method; assay type: functional, organism-based; details: dose 0.1 µg
Escherichia coli [6] = assay: Antibacterial activity against Escherichia coli KB366 expressing IMP-1 assessed as inhibition of bacterial growth at 100 ug in absence of meropenem incubated overnight by paper disk method; assay type: functional, organism-based; details: dose 100.0 µg
Pseudomonas aeruginosa [7] = assay: Antibacterial activity against Pseudomonas aeruginosa KB367 expressing IMP-1 assessed as inhibition of bacterial growth at 1 ug in presence of meropenem incubated overnight by paper disk method; assay type: functional; details: dose 1.0 µg
Escherichia coli [8] = assay: Antibacterial activity against Escherichia coli KB366 expressing IMP-1 assessed as inhibition of bacterial growth at 0.1 ug in absence of meropenem incubated overnight by paper disk method; assay type: functional, organism-based; details: dose 0.1 µg
Escherichia coli [9] = assay: Antibacterial activity against Escherichia coli KB366 expressing IMP-1 assessed as inhibition of bacterial growth at 0.3 ug in absence of meropenem incubated overnight by paper disk method; assay type: functional, organism-based; details: dose 0.3 µg
Escherichia coli [10] = assay: Antibacterial activity against Escherichia coli KB366 expressing IMP-1 assessed as inhibition of bacterial growth at 0.3 ug in presence of meropenem incubated overnight by paper disk method; assay type: functional
Pseudomonas aeruginosa [11] = assay: Antibacterial activity against Pseudomonas aeruginosa KB367 expressing IMP-1 assessed as inhibition of bacterial growth at 100 ug in absence of meropenem incubated overnight by paper disk method; assay type: functional, organism-based; details: dose 100.0 µg
Escherichia coli [12] = assay: Antibacterial activity against Escherichia coli KB366 expressing IMP-1 assessed as inhibition of bacterial growth at 0.1 ug in presence of meropenem incubated overnight by paper disk method; assay type: functional; details: dose 0.1 µg
Pseudomonas aeruginosa [13] = assay: Antibacterial activity against Pseudomonas aeruginosa KB367 expressing IMP-1 assessed as inhibition of bacterial growth at 10 ug in absence of meropenem incubated overnight by paper disk method; assay type: functional, organism-based; details: dose 10.0 µg
[14] = Inhibition of bacterial Metallo-beta-lactamase IMP-1 using nitrocefin as substrate pre-incubated for 15 mins followed by substrate addition by microplate reader; design: species or system Bacteria
Pseudomonas aeruginosa [15] = assay: Antibacterial activity against Pseudomonas aeruginosa KB367 expressing IMP-1 assessed as inhibition of bacterial growth at 100 ug in presence of meropenem incubated overnight by paper disk method; assay type: functional; details: read-out: IZ
Pseudomonas aeruginosa [16] = assay: Antibacterial activity against Pseudomonas aeruginosa KB367 expressing IMP-1 assessed as inhibition of bacterial growth at 3 ug in absence of meropenem incubated overnight by paper disk method; assay type: functional, organism-based; details: dose 3.0 µg
Escherichia coli [17] = assay: Antibacterial activity against Escherichia coli KB366 expressing IMP-1 assessed as inhibition of bacterial growth at 3 ug in presence of meropenem incubated overnight by paper disk method; assay type: functional; details: read-out: IZ
Pseudomonas aeruginosa [18] = assay: Antibacterial activity against Pseudomonas aeruginosa KB367 expressing IMP-1 assessed as inhibition of bacterial growth at 30 ug in absence of meropenem incubated overnight by paper disk method; assay type: functional, organism-based; details: dose 30.0 µg
Escherichia coli [19] = assay: Antibacterial activity against Escherichia coli KB366 expressing IMP-1 assessed as inhibition of bacterial growth at 3 ug in absence of meropenem incubated overnight by paper disk method; assay type: functional, organism-based; details: dose 3.0 µg
Escherichia coli [20] = assay: Antibacterial activity against Escherichia coli KB366 expressing IMP-1 assessed as inhibition of bacterial growth at 10 ug in absence of meropenem incubated overnight by paper disk method; assay type: functional, organism-based; details: dose 10.0 µg
Escherichia coli [21] = assay: Antibacterial activity against Escherichia coli KB366 expressing IMP-1 assessed as inhibition of bacterial growth at 1 ug in absence of meropenem incubated overnight by paper disk method; assay type: functional, organism-based; details: dose 1.0 µg
Pseudomonas aeruginosa [22] = assay: Antibacterial activity against Pseudomonas aeruginosa KB367 expressing IMP-1 assessed as inhibition of bacterial growth at 0.3 ug in absence of meropenem incubated overnight by paper disk method; assay type: functional, organism-based; details: dose 0.3 µg
Pseudomonas aeruginosa [23] = assay: Antibacterial activity against Pseudomonas aeruginosa KB367 expressing IMP-1 assessed as inhibition of bacterial growth at 10 ug in presence of meropenem incubated overnight by paper disk method; assay type: functional; details: read-out: IZ
Escherichia coli [24] = assay: Antibacterial activity against Escherichia coli KB366 expressing IMP-1 assessed as inhibition of bacterial growth at 1 ug in presence of meropenem incubated overnight by paper disk method; assay type: functional; details: read-out: IZ
Escherichia coli [25] = assay: Antibacterial activity against Escherichia coli KB366 expressing IMP-1 assessed as inhibition of bacterial growth at 100 ug in presence of meropenem incubated overnight by paper disk method; assay type: functional; details: read-out: IZ
Pseudomonas aeruginosa [26] = assay: Antibacterial activity against Pseudomonas aeruginosa KB367 expressing IMP-1 assessed as inhibition of bacterial growth at 1 ug in absence of meropenem incubated overnight by paper disk method; assay type: functional, organism-based; details: dose 1.0 µg
Escherichia coli [27] = assay: Antibacterial activity against Escherichia coli KB366 expressing IMP-1 assessed as inhibition of bacterial growth at 30 ug in presence of meropenem incubated overnight by paper disk method; assay type: functional; details: read-out: IZ
Escherichia coli [28] = assay: Antibacterial activity against Escherichia coli KB366 expressing IMP-1 assessed as inhibition of bacterial growth at 10 ug in presence of meropenem incubated overnight by paper disk method; assay type: functional; details: read-out: IZ
Pseudomonas aeruginosa [29] = assay: Antibacterial activity against Pseudomonas aeruginosa KB367 expressing IMP-1 assessed as inhibition of bacterial growth at 0.3 ug in presence of meropenem incubated overnight by paper disk method; assay type: functional, organism-based; details: dose 0.3 µg
Escherichia coli [30] = assay: Antibacterial activity against Escherichia coli KB366 expressing IMP-1 assessed as inhibition of bacterial growth at 0.01 ug in presence of meropenem incubated overnight by paper disk method; assay type: functional; details: dose 0.01 µg
Escherichia coli [31] = assay: Antibacterial activity against Escherichia coli KB366 expressing IMP-1 assessed as inhibition of bacterial growth at 0.03 ug in presence of meropenem incubated overnight by paper disk method; assay type: functional; details: dose 0.03 µg
Escherichia coli [32] = assay: Antibacterial activity against Escherichia coli KB366 expressing IMP-1 assessed as inhibition of bacterial growth at 0.03 ug in absence of meropenem incubated overnight by paper disk method; assay type: functional, organism-based; details: dose 0.03 µg
Escherichia coli [33] = assay: Antibacterial activity against Escherichia coli KB366 expressing IMP-1 assessed as inhibition of bacterial growth at 0.01 ug in absence of meropenem incubated overnight by paper disk method; assay type: functional, organism-based; details: dose 0.01 µg

Compound | zone of inhibition at 30 µg/disc (Pseudomonas aeruginosa [1]) [mm] | inhibition zone (IZ) (Pseudomonas aeruginosa [3]) | inhibition zone (IZ) (Escherichia coli [4]) | inhibition zone (IZ) (Pseudomonas aeruginosa [5]) | inhibition zone (IZ) (Escherichia coli [6]) | inhibition zone (IZ) (Pseudomonas aeruginosa [7]) | inhibition zone (IZ) (Escherichia coli [8]) | inhibition zone (IZ) (Escherichia coli [9]) | inhibition zone (IZ) (Pseudomonas aeruginosa [11]) | inhibition zone (IZ) (Escherichia coli [12]) | inhibition zone (IZ) (Pseudomonas aeruginosa [13]) | IC50 [14] [mg/L] | zone of inhibition at 100 µg/disc (Pseudomonas aeruginosa [15]) [mm] | inhibition zone (IZ) (Pseudomonas aeruginosa [16]) | zone of inhibition at 3 µg/disc (Escherichia coli [17]) [mm] | inhibition zone (IZ) (Pseudomonas aeruginosa [18]) | inhibition zone (IZ) (Escherichia coli [19]) | inhibition zone (IZ) (Escherichia coli [20]) | inhibition zone (IZ) (Escherichia coli [21]) | inhibition zone (IZ) (Pseudomonas aeruginosa [22]) | also measured
CC/C=C/C1=C(CCC(=O)OC)C(=O)OC1=O | 16 | inactive | inactive | inactive | inactive | inactive | inactive | inactive | inactive | inactive | inactive | 4.3 (≈ 18 µM) | 20 | inactive | 23 | inactive | inactive | inactive | inactive | inactive | zone of inhibition at 3 µg/disc (Pseudomonas aeruginosa [2]; read-out: IZ): 9 mm; inhibition zone (IZ) (Escherichia coli [10]; dose 0.3 µg): inactive; zone of inhibition at 10 µg/disc (Pseudomonas aeruginosa [23]): 11 mm; zone of inhibition at 1 µg/disc (Escherichia coli [24]): 19 mm; zone of inhibition at 100 µg/disc (Escherichia coli [25]): 33 mm; inhibition zone (IZ) (Pseudomonas aeruginosa [26]): inactive; zone of inhibition at 30 µg/disc (Escherichia coli [27]): 28 mm; zone of inhibition at 10 µg/disc (Escherichia coli [28]): 26 mm; inhibition zone (IZ) (Pseudomonas aeruginosa [29]): inactive
CC/C=C/C1=C(CCC(=O)O)C(=O)OC1=O | – | – | – | – | – | – | – | – | – | – | – | 67.3 (≈ 300 µM) | – | – | – | – | – | – | – | – | –
CC/C=C/C1=C(CCCOC(C)=O)C(=O)OC1=O | – | – | – | – | – | – | – | – | – | – | – | 5.9 (≈ 23.4 µM) | – | – | – | – | – | – | – | – | –
CC/C=C/C1=C(CCCOCc2ccccc2)C(=O)OC1=O | – | – | – | – | – | – | – | – | – | – | – | > 10 | – | – | – | – | – | – | – | – | –
CCCCC1=C(c2ccc(O)c(O)c2)C(=O)OC1=O | 14 | inactive | inactive | inactive | inactive | inactive | inactive | inactive | inactive | inactive | inactive | 1.46 (≈ 5.57 µM) | 19 | inactive | 20 | inactive | inactive | inactive | inactive | inactive | inhibition zone (IZ) (Escherichia coli [30]): inactive; inhibition zone (IZ) (Escherichia coli [31]): inactive; inhibition zone (IZ) (Pseudomonas aeruginosa [2]; dose 3.0 µg): inactive; zone of inhibition at 0.3 µg/disc (Escherichia coli [10]; read-out: IZ): 13 mm; inhibition zone (IZ) (Escherichia coli [32]): inactive; zone of inhibition at 10 µg/disc (Pseudomonas aeruginosa [23]): 9 mm; zone of inhibition at 1 µg/disc (Escherichia coli [24]): 17 mm; inhibition zone (IZ) (Escherichia coli [33]): inactive; zone of inhibition at 100 µg/disc (Escherichia coli [25]): 29 mm; inhibition zone (IZ) (Pseudomonas aeruginosa [26]): inactive; zone of inhibition at 30 µg/disc (Escherichia coli [27]): 25 mm; zone of inhibition at 10 µg/disc (Escherichia coli [28]): 22 mm; inhibition zone (IZ) (Pseudomonas aeruginosa [29]): inactive
